This assay has as its target T1, PDP1 (PDH phosphatase 1; PDP1-His6) (Mus musculus, UniProt Q3UV70).
T1 construct: mature polypeptide (transit peptide removed; forward primer encodes ASTPQKFY after start Met), C-terminal His6 from pET-28a, E. coli BL21(DE3) with pGro7 chaperones, Ni-NTA purified
T1 sequence (Q3UV70 72-538): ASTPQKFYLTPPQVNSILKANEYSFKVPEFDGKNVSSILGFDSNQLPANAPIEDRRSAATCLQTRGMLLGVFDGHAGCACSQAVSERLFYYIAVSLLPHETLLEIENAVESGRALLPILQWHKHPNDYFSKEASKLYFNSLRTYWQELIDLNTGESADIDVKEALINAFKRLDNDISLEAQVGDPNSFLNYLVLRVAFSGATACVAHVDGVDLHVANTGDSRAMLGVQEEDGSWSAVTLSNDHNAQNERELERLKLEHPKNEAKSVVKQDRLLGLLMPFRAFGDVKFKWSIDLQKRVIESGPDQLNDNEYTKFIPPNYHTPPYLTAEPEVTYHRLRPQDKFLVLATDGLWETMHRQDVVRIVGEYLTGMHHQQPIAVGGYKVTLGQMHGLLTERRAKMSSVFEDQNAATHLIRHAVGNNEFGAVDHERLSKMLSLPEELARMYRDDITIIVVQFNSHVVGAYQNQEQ
Nature of the assay: protein-lipid overlay on PVDF, anti-His immunoblot. The assay is classed as binding. Particulars: lipid spotted at 31.25-500 μM, 1 μl; pH 7.5, 4 °C overnight, 3% BSA. (In general: A western blot detects proteins with antibodies after separation by electrophoresis.)

Each structure is given as a SMILES string.

As for `CCCCC/C=C\C/C=C\CCCCCCCC(=O)OC[C@H](COP(=O)(O)OCC(O)COP(=O)(O)OC[C@@H](COC(=O)CCCCCCC/C=C\C/C=C\CCCCC)OC(=O)CCCCCCC/C=C\C/C=C\CCCCC)OC(=O)CCCCCCC/C=C\C/C=C\CCCCC` (some centres unmarked) [TLCL], the “protein-lipid overlay on PVDF, anti-His immunoblot” value was “only PDP1 was shown to bind with TLCL (Fig. 2B)”.

For the molecule `CCCCCCCC/C=C\CCCCCCCC(=O)OC[C@H](COP(=O)(O)O)OC(=O)CCCCCCC/C=C\CCCCCCCC` [phosphatidic acid], the “protein-lipid overlay on PVDF, anti-His immunoblot” value is “PA is also bound to PDP1 (and to E1)”.

Source of the values: article PMC10884759, “Decreased pyruvate dehydrogenase activity in Tafazzin-deficient cells is caused by dysregulation of pyruvate dehydrogenase phosphatase 1 (PDP1)” (The Journal of Biological Chemistry, 2024).
